Test results from patent US20260199426A1, “CYCLIC LIPOPEPTIDE ANTIBIOTIC COMPOUNDS FOR USE IN THE TREATMENT OF PROTEIN AGGREGATION DISEASE” (DEUTSCHES ZENTRUM FÜR NEURODEGENERATIVE ERKRANKUNGEN E. V., priority 2022, published 2026).
*1 amine or outer side, *2 acyl side, *3 side chain or, on linkers, in order; H or OH if unused. Where a SMILES comes first, the peptide text is derived from it. Bridges are numbered along the chain shown (N, C = ends). [ ]: non-standard residue; d: D form. The star is where a group is joined. ξ: configuration not given here. X2 = O=C(C(N[*:1])c1ccc(OC2OC(CO)C(O)C(O)C2OC2OC(CO)C(O)C(O)C2O)cc1)[*:2]; Undeca(2Z,4E)dienoyl(10-Me) = CC(C)CCCC/C=C/C=C\C(=O)*; Octa(2Z,4E)dienoyl(7-Me) = CC(C)C/C=C/C=C\C(=O)*; X5 = O=C(C(N[*:1])c1cc(Cl)c(O)c(Cl)c1)[*:2]; ξPhg(3-Cl-4-OH) = NC(C(=O)O)c1ccc(O)c(Cl)c1; X1 = NC(=O)C(O[*:3])C(N[*:1])C(=O)[*:2]; X4 = N=C1NCC(CC(N[*:1])C(=O)[*:2])N1; Hpg = N[CH](C(=O)O)c1ccc(O)cc1; X3 = CCC(C)CCCC/C=C/C=C\C(=O)*; Cit = NC(=O)NCCC[CH](N)C(=O)O; Orn = NCCC[CH](N)C(=O)O; X6 = Cc1ccccc1CC(=O)*

Tests used:
[1] = molecular target: N-terminally acetylated alpha-synuclein (Asyn) (Homo sapiens, UniProt P37840); test: Seeded α-synuclein aggregation assay (ThT fluorescence, TEM); assay type: biochemical; details: for in vitro aggregation of alpha-synuclein (ThT fluorescence): 3-fold excess of compound, 25 μM Asyn monomers, 1% (v/v) fibril seeds, 37° C.; for Asyn fibril morphology (TEM) / Asyn oligomer formation (TEM): compound/Asyn mixtures
Experimental: (§1) (A, B) Thioflavin-T (ThT) fluorescence curves of N-terminally acetylated alpha-synuclein (Asyn) in the absence (cross) and presence of a 3-fold excess (white circles) of compound. […] Quantitative analysis of Asyn aggregation kinetics was performed by nonlinear regression with sigmoidal fitting to determine the midpoint value (Tm) of the fluorescence curve as well as the fluorescence span. Unpaired two-tailed t-test was performed to test the null hypothesis (p≤0.0332(*), p≤0.002(**), p≤0.0002 (***), p≤0.0001 (****)). […] (C) TEM imaging analysis of the compound/Asyn mixtures. Scale bars correspond to 200 nm.
as §1, with “ThT” for “Thioflavin-T (ThT)”, “circles or triangles)” for “circles)”
(A) ThT fluorescence curves of N-terminally acetylated alpha-synuclein (Asyn) in the absence (cross) and presence of a 3-fold excess (white circles) of compound. […] Quantitative analysis of Asyn aggregation kinetics was performed by nonlinear regression with sigmoidal fitting to determine the midpoint value (Tm) of the fluorescence curve as well as the fluorescence span.
Asyn protein stock solutions were prepared in 50 mM HEPES at pH 7.4 with 100 mM NaCl. Stocks of compounds were prepared in the same buffer (500 μM) or as 10 mM compound in DMSO. […] The microplate was likewise subjected to the incubation and fluorescence measurement program used in in vitro assay 1. After about 2-4 days of incubation, ThT fluorescence emission reached the maximal value and the Asyn fibril-containing mixture was collected as “fibril seed” mixture for subsequent Asyn aggregation experiments.

[2] = system: Tau aggregation in HEK biosensor cells (TauRD^LM-GFP); details: induced by cell lysate containing Tau aggregates; 0.25 μM to 40 μM, 22 h, lipofectamine
[3] = molecular target: T1, amylin (human islet amyloid polypeptide or hIAPP) (Homo sapiens, UniProt P10997); test: Amylin aggregation assay (ThT); assay type: biochemical; details: 5 μM hIAPP monomers, various doses, 37° C.
T1 construct: 5 μM amylin (human islet amyloid polypeptide or hIAPP) monomers
T1 sequence (P10997 34-70 limits assumed): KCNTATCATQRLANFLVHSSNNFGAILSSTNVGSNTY

[4] = molecular target: bovine serum albumin (BSA) (Bos taurus, UniProt P02769); details: Shivani A et al. 2020; cited from earlier work
bovine serum albumin (BSA), sequence (P02769 25-607): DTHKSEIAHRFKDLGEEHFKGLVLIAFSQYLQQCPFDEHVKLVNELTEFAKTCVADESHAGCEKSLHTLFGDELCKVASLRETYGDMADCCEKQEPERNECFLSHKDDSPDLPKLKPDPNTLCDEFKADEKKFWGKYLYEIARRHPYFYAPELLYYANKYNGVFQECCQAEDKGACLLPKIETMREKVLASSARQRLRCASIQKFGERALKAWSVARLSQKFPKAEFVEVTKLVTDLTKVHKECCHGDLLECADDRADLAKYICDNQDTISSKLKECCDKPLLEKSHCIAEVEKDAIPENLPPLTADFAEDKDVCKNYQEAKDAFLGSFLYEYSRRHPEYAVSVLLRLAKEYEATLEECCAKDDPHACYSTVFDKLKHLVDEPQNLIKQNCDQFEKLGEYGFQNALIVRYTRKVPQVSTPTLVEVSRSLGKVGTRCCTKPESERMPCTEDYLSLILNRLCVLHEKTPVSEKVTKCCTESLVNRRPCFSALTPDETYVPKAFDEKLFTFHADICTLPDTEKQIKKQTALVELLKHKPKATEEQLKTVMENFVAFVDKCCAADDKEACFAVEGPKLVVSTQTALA

Compound	in vitro aggregation of alpha-synuclein (ThT fluorescence) [1]	Asyn fibril morphology (TEM) [1]	inhibition of seeded Tau aggregation [2]	Asyn oligomer formation (TEM) [1]	in vitro aggregation of amylin (final ThT fluorescence, t=50 h) [3]	aggregation of bovine serum albumin (BSA) [4]
CC(C)CCCC/C=C/C=C\C(=O)NC(CC(=O)O)C(=O)NC1C(=O)NC(c2ccc(O)cc2)C(=O)NC(CCCN)C(=O)NC(C(C)O)C(=O)NC(c2ccc(O)cc2)C(=O)NC(c2ccc(O)cc2)C(=O)NC(C(C)O)C(=O)NC(CCCNC(N)=O)C(=O)NC(CC2CNC(=N)N2)C(=O)NC(c2ccc(O)cc2)C(=O)NC(CO)C(=O)NC(c2cc(Cl)c(O)c(Cl)c2)C(=O)NCC(=O)NC(CC2CNC(=N)N2)C(=O)NC(C)C(=O)NC(c2ccc(O)cc2)C(=O)OC1C (stereo not drawn) [Enduracidin A] ({Undeca(2Z,4E)dienoyl(10-Me)}-DT[Hpg][Orn]T[Hpg][Hpg]T[Cit][X4][Hpg]S[X5]G[X4]A[Hpg]; ester 2-C; configuration not given here)	inhibit the in vitro aggregation	shorter fibrils with a rougher surface	showed inhibition of seeded Tau aggregation	–	–	–
CCC(C)CCCC/C=C/C=C\C(=O)NC(CC(=O)O)C(=O)NC1C(=O)NC(c2ccc(O)cc2)C(=O)NC(CCCN)C(=O)NC(C(C)O)C(=O)NC(c2ccc(O)cc2)C(=O)NC(c2ccc(O)cc2)C(=O)NC(C(C)O)C(=O)NC(CCCNC(N)=O)C(=O)NC(CC2CNC(=N)N2)C(=O)NC(c2ccc(O)cc2)C(=O)NC(CO)C(=O)NC(c2cc(Cl)c(O)c(Cl)c2)C(=O)NCC(=O)NC(CC2CNC(=N)N2)C(=O)NC(C)C(=O)NC(c2ccc(O)cc2)C(=O)OC1C (stereo not drawn) [Enduracidin B] (X3-DT[Hpg][Orn]T[Hpg][Hpg]T[Cit][X4][Hpg]S[X5]G[X4]A[Hpg]; ester 2-C; configuration not given here)	inhibit the in vitro aggregation	shorter fibrils with a rougher surface	–	Asyn oligomer formation also competes with Asyn fibril formation	inhibit the in vitro aggregation of amylin	–
Cc1ccccc1CC(=O)NC(CC(N)=O)C(=O)NC1C(=O)NC(c2ccc(O)cc2)C(=O)NC(CCCN)C(=O)NC(C(C)O)C(=O)NC(c2ccc(O)cc2)C(=O)NC(c2ccc(O)cc2)C(=O)NC(C(C)O)C(=O)NC(Cc2ccccc2)C(=O)NC(CCCN)C(=O)NC(c2ccc(OC3OC(CO)C(O)C(O)C3OC3OC(CO)C(O)C(O)C3O)cc2)C(=O)NC(C(C)O)C(=O)NC(c2ccc(O)cc2)C(=O)NCC(=O)NC(CC(C)C)C(=O)NC(C)C(=O)NC(c2ccc(O)c(Cl)c2)C(=O)OC1C(N)=O (stereo not drawn) [NAI-603, Ramoplanin 2-methyl-phenyl derivative NAI-603] (X6-N[X1][Hpg][Orn]T[Hpg][Hpg]TF[Orn][X2]T[Hpg]GLA[ξPhg(3-Cl-4-OH)]; ester 2-C; configuration not given here)	–	–	–	–	inhibit the in vitro aggregation of amylin	–
CC(C)C/C=C/C=C\C(=O)NC(CC(N)=O)C(=O)NC1C(=O)NC(c2ccc(O)cc2)C(=O)NC(CCCN)C(=O)NC(C(C)O)C(=O)NC(c2ccc(O)cc2)C(=O)NC(c2ccc(O)cc2)C(=O)NC(C(C)O)C(=O)NC(Cc2ccccc2)C(=O)NC(CCCN)C(=O)NC(c2ccc(O)cc2)C(=O)NC(C(C)O)C(=O)NC(c2ccc(O)cc2)C(=O)NCC(=O)NC(CC(C)C)C(=O)NC(C)C(=O)NC(c2ccc(O)c(Cl)c2)C(=O)OC1C(N)=O (stereo not drawn) [Ramoplanin A2 Aglycon, Ramoplanin aglycon] ({Octa(2Z,4E)dienoyl(7-Me)}-N[X1][Hpg][Orn]T[Hpg][Hpg]TF[Orn][Hpg]T[Hpg]GLA[ξPhg(3-Cl-4-OH)]; ester 2-C; configuration not given here)	inhibit the in vitro aggregation	–	–	favors the formation of Asyn oligomers	–	–
CNC(CC(C)C)C(=O)NC1C(=O)NC(CC(N)=O)C(=O)NC2C(=O)NC3C(=O)NC(C(=O)NC(C(=O)O)c4cc(O)cc(O)c4-c4cc3ccc4O)C(O)c3ccc(c(Cl)c3)Oc3cc2cc(c3OC2OC(CO)C(O)C(O)C2OC2CC(C)(N)C(O)C(C)O2)Oc2ccc(cc2Cl)C1O (stereo not drawn) [Vancomycin, reference compound]	–	–	showed inhibition of seeded Tau aggregation	–	–	–
Teicoplanin [reference compound]	inhibits the in vitro aggregation	–	showed inhibition of seeded Tau aggregation	Asyn oligomer formation competes with Asyn fibril formation	–	inhibition of the aggregation
